ChEMBL document CHEMBL1146387, “A new class of anti-MRSA and anti-VRE agents: preparation and antibacterial activities of indole-containing compounds” (2007)
Converted amounts (≈) assume the structure as drawn.

What was measured:
Type in all cases: functional
Staphylococcus aureus [1] = test: Antibacterial activity against methicillin-susceptible Staphylococcus aureus 209P
Staphylococcus aureus [2] = test: Antibacterial activity against methicillin-resistant Staphylococcus aureus MF535
Enterococcus faecium [3] = test: Antibacterial activity against Enterococcus faecium ATCC 19434
Enterococcus faecium [4] = test: Antibacterial activity against vancomycin-resistant Enterococcus faecium VRA

| SMILES | MIC (Staphylococcus aureus [1]) | MIC (Staphylococcus aureus [2]) | MIC (Enterococcus faecium [3]) | MIC (Enterococcus faecium [4]) |
| --- | --- | --- | --- | --- |
| Cc1cccc(C(c2[nH]c3ccccc3c2CCOC(=O)c2ccccc2)c2c(O)c3ccccc3oc2=O)c1 (configuration not stated) | 8 µg/mL (≈ 15.1 µM) | 8 µg/mL (≈ 15.1 µM) | 8 µg/mL (≈ 15.1 µM) | 4 µg/mL (≈ 7.55 µM) |
| Cn1c(=O)c(C(c2cccc(Br)c2)c2[nH]c3ccccc3c2CCOC(=O)c2ccccc2)c(O)c2ccccc21 (configuration not stated) | 1 µg/mL (≈ 1.65 µM) | 2 µg/mL (≈ 3.29 µM) | > 128 µg/mL | > 128 µg/mL |
| Cn1c(=O)c(C(c2ccc(C(F)(F)F)cc2)c2[nH]c3ccccc3c2CCOC(=O)Cc2ccccc2)c(O)c2ccccc21 (configuration not stated) | 1 µg/mL (≈ 1.64 µM) | 1 µg/mL (≈ 1.64 µM) | > 128 µg/mL | > 128 µg/mL |
| COc1ccccc1C(=O)OCCc1c(C(c2cccc(Br)c2)c2c(O)cc(C)oc2=O)[nH]c2ccccc12 (configuration not stated) | 32 µg/mL (≈ 54.4 µM) | 64 µg/mL (≈ 109 µM) | 64 µg/mL (≈ 109 µM) | 64 µg/mL (≈ 109 µM) |
| CC(=O)NCCc1c(C(c2cccc(Br)c2)c2c(O)c3ccccc3oc2=O)[nH]c2ccccc12 (configuration not stated) | > 128 µg/mL | > 128 µg/mL | > 128 µg/mL | > 128 µg/mL |
| O=C(OCCc1c(C(c2ccc(OC(F)(F)F)cc2)c2c(O)c3ccccc3oc2=O)[nH]c2ccccc12)c1ccccc1 (configuration not stated) | 2 µg/mL (≈ 3.34 µM) | 2 µg/mL (≈ 3.34 µM) | 0.5 µg/mL (≈ 0.834 µM) | 0.5 µg/mL (≈ 0.834 µM) |
| CC(=O)OCCc1c(C(c2cccc(Br)c2)c2c(O)c3ccccc3oc2=O)[nH]c2ccccc12 (configuration not stated) | 32 µg/mL (≈ 60.1 µM) | 32 µg/mL (≈ 60.1 µM) | 64 µg/mL (≈ 120 µM) | 32 µg/mL (≈ 60.1 µM) |
| COc1ccc(C(c2[nH]c3ccccc3c2CCOC(=O)c2ccccc2)c2c(O)c3ccccc3oc2=O)cc1 (configuration not stated) | 8 µg/mL (≈ 14.7 µM) | 8 µg/mL (≈ 14.7 µM) | 16 µg/mL (≈ 29.3 µM) | 16 µg/mL (≈ 29.3 µM) |
| O=C(OCCc1c(C(c2cccc(F)c2)c2c(O)c3ccccc3oc2=O)[nH]c2ccccc12)c1ccccc1 (configuration not stated) | 4 µg/mL (≈ 7.5 µM) | 8 µg/mL (≈ 15 µM) | 8 µg/mL (≈ 15 µM) | 8 µg/mL (≈ 15 µM) |
| Cn1c(=O)c(C(c2ccc(C(F)(F)F)cc2)c2[nH]c3ccccc3c2CCNC(=O)c2ccccc2)c(O)c2ccccc21 (configuration not stated) | 8 µg/mL (≈ 13.4 µM) | 16 µg/mL (≈ 26.9 µM) | 16 µg/mL (≈ 26.9 µM) | 16 µg/mL (≈ 26.9 µM) |
| Cc1ccc(C(c2[nH]c3ccccc3c2CCOC(=O)c2ccccc2)c2c(O)c3ccccc3oc2=O)cc1 (configuration not stated) | 4 µg/mL (≈ 7.55 µM) | 4 µg/mL (≈ 7.55 µM) | 8 µg/mL (≈ 15.1 µM) | 8 µg/mL (≈ 15.1 µM) |
| O=C(OCCc1c(C(c2ccccc2)c2c(O)c3ccccc3oc2=O)[nH]c2ccccc12)c1ccccc1 (configuration not stated) | 8 µg/mL (≈ 15.5 µM) | 8 µg/mL (≈ 15.5 µM) | 16 µg/mL (≈ 31 µM) | 16 µg/mL (≈ 31 µM) |
| Cn1c(=O)c(C(c2ccc(OC(F)(F)F)cc2)c2[nH]c3ccccc3c2CCOC(=O)c2ccccc2)c(O)c2ccccc21 (configuration not stated) | 0.5 µg/mL (≈ 0.816 µM) | 1 µg/mL (≈ 1.63 µM) | > 128 µg/mL | > 128 µg/mL |
| O=C(OCCc1c(C(c2ccc(Br)cc2)c2c(O)c3ccccc3oc2=O)[nH]c2ccccc12)c1ccccc1 (configuration not stated) | 2 µg/mL (≈ 3.36 µM) | 2 µg/mL (≈ 3.36 µM) | 2 µg/mL (≈ 3.36 µM) | 2 µg/mL (≈ 3.36 µM) |
| Cn1c(=O)c(C(c2ccc(OC(F)(F)F)cc2)c2[nH]c3ccccc3c2CCOC(=O)Cc2ccccc2)c(O)c2ccccc21 (configuration not stated) | 1 µg/mL (≈ 1.6 µM) | 1 µg/mL (≈ 1.6 µM) | 32 µg/mL (≈ 51.1 µM) | 2 µg/mL (≈ 3.19 µM) |
| Cn1c(=O)c(C(c2ccc(OC(F)(F)F)cc2)c2[nH]c3ccccc3c2CCOC(=O)C2CCCCC2)c(O)c2ccccc21 (configuration not stated) | 1 µg/mL (≈ 1.62 µM) | 1 µg/mL (≈ 1.62 µM) | 2 µg/mL (≈ 3.23 µM) | 2 µg/mL (≈ 3.23 µM) |
| O=C(OCCc1c(C(c2cccc(C(F)(F)F)c2)c2c(O)c3ccccc3oc2=O)[nH]c2ccccc12)c1ccccc1 (configuration not stated) | 4 µg/mL (≈ 6.85 µM) | 4 µg/mL (≈ 6.85 µM) | 2 µg/mL (≈ 3.43 µM) | 1 µg/mL (≈ 1.71 µM) |
| Cn1c(=O)c(C(c2ccc(C(F)(F)F)cc2)c2[nH]c3ccccc3c2CCOC(=O)c2ccccc2)c(O)c2ccccc21 (configuration not stated) | 0.5 µg/mL (≈ 0.838 µM) | 1 µg/mL (≈ 1.68 µM) | 8 µg/mL (≈ 13.4 µM) | 8 µg/mL (≈ 13.4 µM) |

| SMILES | MIC (Staphylococcus aureus [1]) | MIC (Staphylococcus aureus [2]) | MIC (Enterococcus faecium [3]) | MIC (Enterococcus faecium [4]) |
| --- | --- | --- | --- | --- |
| COc1ccccc1C(=O)OCCc1c(C(c2cccc(Br)c2)c2c(O)c3ccccc3oc2=O)[nH]c2ccccc12 (configuration not stated) | 4 µg/mL (≈ 6.41 µM) | 8 µg/mL (≈ 12.8 µM) | 8 µg/mL (≈ 12.8 µM) | 8 µg/mL (≈ 12.8 µM) |
| O=C(OCCc1c(C(c2ccc(OC(F)(F)F)cc2)c2c(O)c3cc(Cl)ccc3oc2=O)[nH]c2ccccc12)c1ccccc1 (configuration not stated) | 2 µg/mL (≈ 3.15 µM) | 2 µg/mL (≈ 3.15 µM) | 1 µg/mL (≈ 1.58 µM) | 1 µg/mL (≈ 1.58 µM) |
| CC(=O)NCCc1c(C(c2cccc(Br)c2)c2c(O)c3ccccc3n(C)c2=O)[nH]c2ccccc12 (configuration not stated) | 32 µg/mL (≈ 58.8 µM) | 32 µg/mL (≈ 58.8 µM) | > 128 µg/mL | > 128 µg/mL |
| CN[C@H](CC(C)C)C(=O)N[C@H]1C(=O)N[C@@H](CC(N)=O)C(=O)N[C@H]2C(=O)N[C@H]3C(=O)N[C@H](C(=O)N[C@H](C(=O)O)c4cc(O)cc(O)c4-c4cc3ccc4O)[C@H](O)c3ccc(c(Cl)c3)Oc3cc2cc(c3O[C@@H]2O[C@H](CO)[C@@H](O)[C@H](O)[C@H]2O[C@H]2C[C@](C)(N)[C@H](O)[C@H](C)O2)Oc2ccc(cc2Cl)[C@H]1O [VANCOMYCIN] |  |  |  | > 128 µg/mL |
| Cn1c(=O)c(C(c2ccc(C(F)(F)F)cc2)c2[nH]c3ccccc3c2CCNS(=O)(=O)c2ccccc2)c(O)c2ccccc21 (configuration not stated) | 1 µg/mL (≈ 1.58 µM) | 1 µg/mL (≈ 1.58 µM) | 4 µg/mL (≈ 6.33 µM) | 2 µg/mL (≈ 3.17 µM) |
| Cn1c(=O)c(C(c2ccc(C(F)(F)F)cc2)c2[nH]c3ccccc3c2CCOC(=O)C2CCCCC2)c(O)c2ccccc21 (configuration not stated) | 1 µg/mL (≈ 1.66 µM) | 1 µg/mL (≈ 1.66 µM) | 2 µg/mL (≈ 3.32 µM) | 1 µg/mL (≈ 1.66 µM) |
| CC(=O)OCCc1c(C(c2cccc(Br)c2)c2c(O)c3ccccc3n(C)c2=O)[nH]c2ccccc12 (configuration not stated) | 16 µg/mL (≈ 29.3 µM) | 16 µg/mL (≈ 29.3 µM) | 64 µg/mL (≈ 117 µM) | 32 µg/mL (≈ 58.7 µM) |
| O=C(OCCc1c(C(c2cccc(Br)c2)c2c(O)c3ccccc3oc2=O)[nH]c2ccccc12)c1ccccc1 (configuration not stated) | 4 µg/mL (≈ 6.73 µM) | 4 µg/mL (≈ 6.73 µM) | 4 µg/mL (≈ 6.73 µM) | 4 µg/mL (≈ 6.73 µM) |
| COc1ccccc1C(=O)OCCc1c(C(c2cccc(Br)c2)c2c(O)c3ccccc3n(C)c2=O)[nH]c2ccccc12 (configuration not stated) | > 128 µg/mL | > 128 µg/mL | > 128 µg/mL | > 128 µg/mL |
| Cn1c(=O)c(C(c2ccc(OC(F)(F)F)cc2)c2[nH]c3ccccc3c2CCNC(=O)c2ccccc2)c(O)c2ccccc21 (configuration not stated) | 8 µg/mL (≈ 13.1 µM) | 128 µg/mL (≈ 209 µM) | > 128 µg/mL | > 128 µg/mL |
| CSc1ccc(C(c2[nH]c3ccccc3c2CCOC(=O)c2ccccc2)c2c(O)c3ccccc3oc2=O)cc1 (configuration not stated) | 4 µg/mL (≈ 7.12 µM) | 8 µg/mL (≈ 14.2 µM) | 4 µg/mL (≈ 7.12 µM) | 4 µg/mL (≈ 7.12 µM) |
| Cn1c(=O)c(C(c2cccc(Br)c2)c2[nH]c3ccccc3c2CCOC(=O)Cc2ccccc2)c(O)c2ccccc21 (configuration not stated) | 64 µg/mL (≈ 103 µM) | > 128 µg/mL | > 128 µg/mL | > 128 µg/mL |
| O=C(OCCc1c(C(c2ccc(C(F)(F)F)cc2)c2c(O)c3ccccc3oc2=O)[nH]c2ccccc12)c1ccccc1 (configuration not stated) | 2 µg/mL (≈ 3.43 µM) | 2 µg/mL (≈ 3.43 µM) | 2 µg/mL (≈ 3.43 µM) | 2 µg/mL (≈ 3.43 µM) |
| CC(=O)NC[C@H]1CN(c2ccc(N3CCOCC3)c(F)c2)C(=O)O1 [LINEZOLID] | 1 µg/mL (≈ 2.96 µM) | 1 µg/mL (≈ 2.96 µM) | 2 µg/mL (≈ 5.93 µM) | 2 µg/mL (≈ 5.93 µM) |
| CN(C(=O)NCCc1c(C(c2ccc(C(F)(F)F)cc2)c2c(O)c3ccccc3n(C)c2=O)[nH]c2ccccc12)c1ccccc1 (configuration not stated) | 1 µg/mL (≈ 1.6 µM) | 1 µg/mL (≈ 1.6 µM) | 2 µg/mL (≈ 3.2 µM) | 1 µg/mL (≈ 1.6 µM) |
| COc1ccccc1C(=O)NCCc1c(C(c2cccc(Br)c2)c2c(O)c3ccccc3oc2=O)[nH]c2ccccc12 (configuration not stated) | 8 µg/mL (≈ 12.8 µM) | 16 µg/mL (≈ 25.7 µM) | 32 µg/mL (≈ 51.3 µM) | 32 µg/mL (≈ 51.3 µM) |
| COc1ccccc1C(=O)OCCc1c(C(c2cncc(Br)c2)c2c(O)c3ccccc3oc2=O)[nH]c2ccccc12 (configuration not stated) | 64 µg/mL (≈ 102 µM) | 128 µg/mL (≈ 205 µM) | 128 µg/mL (≈ 205 µM) | 128 µg/mL (≈ 205 µM) |
